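Dose response: 5 concentrations. Exposure: 48 h. Format: 96-well plates. Endpoint: linear interpolation; highest concentration if not reached. TGI denotes the concentration required for complete inhibition of growth.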
Legend:
Assay in all cases: NCI anticancer screen, dose series, 48 h
786-0 renal = tested on: 786-0 renal
A498 renal = tested on: A498 renal
A549 NSCLC = tested on: A549 NSCLC
ACHN renal = tested on: ACHN renal
BT-549 breast = tested on: BT-549 breast
CAKI-1 renal = tested on: CAKI-1 renal
CCRF-CEM leukemia = tested on: CCRF-CEM leukemia
COLO 205 colon = tested on: COLO 205 colon
DU-145 prostate = tested on: DU-145 prostate
EKVX NSCLC = tested on: EKVX NSCLC
HCC-2998 colon = tested on: HCC-2998 colon
HCT-116 colon = tested on: HCT-116 colon
HCT-15 colon = tested on: HCT-15 colon
HL-60(TB) leukemia = tested on: HL-60(TB) leukemia
HOP-62 NSCLC = tested on: HOP-62 NSCLC
HOP-92 NSCLC = tested on: HOP-92 NSCLC
HS 578T breast = tested on: HS 578T breast
HT29 colon = tested on: HT29 colon
IGROV1 ovarian = tested on: IGROV1 ovarian
K-562 leukemia = tested on: K-562 leukemia
KM12 colon = tested on: KM12 colon
LOX IMVI melanoma = tested on: LOX IMVI melanoma
MALME-3M melanoma = tested on: MALME-3M melanoma
MCF7 breast = tested on: MCF7 breast
MDA-MB-231 breast = tested on: MDA-MB-231 breast
MDA-MB-435 = tested on: MDA-MB-435
NCI-H226 lung = tested on: NCI-H226 lung
NCI-H23 lung = tested on: NCI-H23 lung
NCI-H460 lung = tested on: NCI-H460 lung
NCI-H522 lung = tested on: NCI-H522 lung
NCI/ADR-RES ovarian = tested on: NCI/ADR-RES ovarian
OVCAR-3 ovarian = tested on: OVCAR-3 ovarian
OVCAR-4 ovarian = tested on: OVCAR-4 ovarian
OVCAR-5 ovarian = tested on: OVCAR-5 ovarian
OVCAR-8 ovarian = tested on: OVCAR-8 ovarian
PC-3 prostate = tested on: PC-3 prostate
RPMI-8226 leukemia = tested on: RPMI-8226 leukemia
RXF 393 renal = tested on: RXF 393 renal
SF-268 CNS = tested on: SF-268 CNS
SF-295 CNS = tested on: SF-295 CNS
SK-MEL-2 melanoma = tested on: SK-MEL-2 melanoma
SK-MEL-28 melanoma = tested on: SK-MEL-28 melanoma
SK-MEL-5 melanoma = tested on: SK-MEL-5 melanoma
SK-OV-3 ovarian = tested on: SK-OV-3 ovarian
SN12C renal = tested on: SN12C renal
SNB-19 CNS = tested on: SNB-19 CNS
SNB-75 CNS = tested on: SNB-75 CNS
SR leukemia = tested on: SR leukemia
SW-620 colon = tested on: SW-620 colon
T-47D breast = tested on: T-47D breast
TK-10 renal = tested on: TK-10 renal
U251 CNS = tested on: U251 CNS
UACC-257 melanoma = tested on: UACC-257 melanoma
UACC-62 melanoma = tested on: UACC-62 melanoma
UO-31 renal = tested on: UO-31 renal

SMILES: C=C1C(=O)O[C@H]2[C@H]3O[C@@H](C[C@@H]12)[C@@]1(C)CC[C@H](O1)[C@H](C)CCC[C@H]3C
- TGI (786-0 renal): 2630 nM
- TGI (A498 renal): 3.17 µM
- TGI (A549 NSCLC): 5.09 µM
- TGI (ACHN renal): 2840 nM
- TGI (BT-549 breast): 2170 nM
- TGI (CAKI-1 renal): 2580 nM
- TGI (CCRF-CEM leukemia): 2990 nM
- TGI (COLO 205 colon): 3.33 µM
- TGI (DU-145 prostate): 2860 nM
- TGI (EKVX NSCLC): 2840 nM
- TGI (HCC-2998 colon): 2570 nM
- TGI (HCT-116 colon): 2490 nM
- TGI (HCT-15 colon): 3.55 µM
- TGI (HL-60(TB) leukemia): 1270 nM
- TGI (HOP-62 NSCLC): 16.3 µM
- TGI (HOP-92 NSCLC): 3.48 µM
- TGI (HS 578T breast): 12.4 µM
- TGI (HT29 colon): 3.04 µM
- TGI (IGROV1 ovarian): 2740 nM
- TGI (K-562 leukemia): 3.59 µM
- TGI (KM12 colon): 4.05 µM
- TGI (LOX IMVI melanoma): 2940 nM
- TGI (MALME-3M melanoma): 3.24 µM
- TGI (MCF7 breast): 3.98 µM
- TGI (MDA-MB-231 breast): 3.12 µM
- TGI (MDA-MB-435): 2610 nM
- TGI (NCI-H226 lung): 3.87 µM
- TGI (NCI-H23 lung): 3.18 µM
- TGI (NCI-H460 lung): 3.7 µM
- TGI (NCI-H522 lung): 2840 nM
- TGI (NCI/ADR-RES ovarian): 2990 nM
- TGI (OVCAR-3 ovarian): 2370 nM
- TGI (OVCAR-4 ovarian): 3.4 µM
- TGI (OVCAR-5 ovarian): 3.38 µM
- TGI (OVCAR-8 ovarian): 2820 nM
- TGI (PC-3 prostate): 3.01 µM
- TGI (RPMI-8226 leukemia): 2350 nM
- TGI (RXF 393 renal): 5.24 µM
- TGI (SF-268 CNS): 3.34 µM
- TGI (SF-295 CNS): 17.4 µM
- TGI (SK-MEL-2 melanoma): 4.62 µM
- TGI (SK-MEL-28 melanoma): 3.1 µM
- TGI (SK-MEL-5 melanoma): 2720 nM
- TGI (SK-OV-3 ovarian): 19.5 µM
- TGI (SN12C renal): 6.61 µM
- TGI (SNB-19 CNS): 21.7 µM
- TGI (SNB-75 CNS): 3.15 µM
- TGI (SR leukemia): 448 nM
- TGI (SW-620 colon): 4.26 µM
- TGI (T-47D breast): 5.53 µM
- TGI (TK-10 renal): 2980 nM
- TGI (U251 CNS): 2820 nM
- TGI (UACC-257 melanoma): 3.41 µM
- TGI (UACC-62 melanoma): 6.32 µM
- TGI (UO-31 renal): 2900 nM
